Source: patent US20050049229A1, “Therapeutic applications of 2-hydroxyacetanilide” (priority 2003, published 2005)
Read-outs that look alike come from different tables or passages of the source. Marks after values point to notes of the source that are not given here.

Tests used:
[1] = test system: platelet aggregation induced by collagen, arachidonic acid (AA) and adenosine diphosphate (ADP); details: Dupin et al.; cited from earlier work
[2] = test system: carrageenan-induced rat-paw oedema; experiment: carrageenan-induced rat paw oedema (plethysmographic method); type: in vivo; details: for Mean paw volume ± SEM after 5 hr: 30 min before carrageenan; for Anti-inflammatory Activity Mean ± SEM: A−B/A×100 vs control, in %
Procedure: The plethysmographic method (Winter et al., Proc. Soc. Exp. Biol. Med. III, 1962, pp. 544-547) was then used for recording the volume changes in the rat paw. […] Another two groups received paracetamol at a dose of 300 or 500 mg kg^−1, and a further two groups received aspirin at a dose of 150 or 300 mg kg^−1, while the control group received saline or distilled water. […] The difference in paw volumes before and after the carrageenan injections indicated the volume of inflammation. Anti-inflammatory activities were calculated as A−B/A×100, where A and B denote mean paw volume of control and drug-treated animals respectively.

[3] = test system: PAF-induced mortality; experiment: prevention of PAF-induced mortality in rabbits; type: in vivo, rabbit
Procedure: Male rabbits (New Zealand White, 3-3.5 kg) were used to test the ability of 2-hydroxyacetanilide, paracetamol and aspirin to prevent the lethality of intravenous PAF.
PAF was prepared before each injection by dissolution in saline to give a final concentration of 22 μg ml^−1. The resulting solution was injected into the marginal ear vein of the rabbits over a period of approximately 1 minute. In preliminary experiments it was established that an intravenous dose of 11 μg kg^−1 PAF was required to induce consistently fatal pulmonary thrombosis in the animals (n=6). This dose of PAF was used in subsequent experiments with 2-hydroxyacetanilide and paracetamol.
Rabbits were pretreated by intraperitoneal injection of either 2-hydroxyacetanilide (100 or 300 mg kg^−1), paracetamol (300 or 500 mg kg^−1) or aspirin (50 mg kg^−1) 2 hours before the challenging dose of PAF. Each animal was used for only one experiment.

[4] = overdose, about twenty 500 mg tablets; cited from earlier work
[5] = test system: acetic acid induced writhing; experiment: acetic acid induced writhing test in mice; type: in vivo, mouse; details: for No. of writhings: 30 min before 1% acetic acid IP, counted 10 minutes
Procedure: Analgesia was assessed by the method of Koster et al. (Federation Proceedings, 1959, 18, pp. 412-416), otherwise known as the acetic acid induced writhing test. When acetic acid is injected intraperitoneally it causes abdominal contractions or writhings, a syndrome characterized by a wave of contraction of the abdominal musculature followed by extension of hind limbs. By counting the number of writhes a measure of the effective analgesia provided can be obtained.
Male Wister mice (20-25 g) were divided into six groups, with five mice per group, for use in the writhing assay. The compounds 2-hydroxyacetanilide or paracetamol were administered orally 30 minutes prior to an intraperitoneal injection of 1% acetic acid. Immediately after administering the acetic acid, the number of writhings were counted and recorded for the subsequent 10 minutes. Analgesic potency was taken as difference between a test group mean and its control.

[6] = test system: platelet aggregation induced by AA, PAF or collagen; experiment: in vivo platelet aggregation (PRP from orally dosed rabbits); design: species or system rabbit; details: Oryctolagus cuniculus, 500 mg/kg oral, blood 2 hours after
Procedure: Both 2-hydroxyacetanilide and paracetamol were tested for in vivo platelet aggregation activity at a dose of 500 mg kg^−1. The compounds were first separately dissolved in 0.5% w/v gum tragacanth and then administered orally to albino rabbits of either sex. Control groups received only the vehicle.
Blood was drawn from the marginal ear of the rabbits 2 hours after drug administration. The blood was then mixed with 3.8% w/v sodium citrate solution (9:1) and centrifuged at 260 g for 15 minutes at 20° C. to prepare platelet rich plasma (PRP). The platelet count was determined by phase contrast microscopy and all aggregation studies were carried out at 37° C. with PRP having platelet counts between 2.5 and […] /ml of plasma. The experiments were performed within 2 hours of PRP preparation.
Platelet aggregation was monitored using a Dual-Channel Lumi-aggregometer (Model 400 Chronolog Corporation, Chicago, USA) using 0.45 ml aliquots of PRP. Aggregation was induced with platelet activating factor (PAF, 0.8 μM), collagen (20 μg mL^−1) or arachidonic acid (AA, 1.7 mM).

[7] = test system: platelet aggregation induced by AA, PAF or collagen; experiment: in vitro platelet aggregation in human platelet rich plasma; type: cell-based; details: human PRP
Procedure: Blood was drawn by vein puncture from healthy human volunteers reported to be free of medications for at least one week. The blood samples were mixed with 3.8% w/v sodium citrate solution (9:1) and centrifuged at 260 g for 15 minutes at 20° C. to obtain platelet rich plasma (PRP). The platelet count was determined by phase contrast microscopy and all aggregation studies were carried out at 37° C. with PRP having platelet counts between 2.5 and 3.0×10^8/ml of plasma. All experiments were performed within 2 hours of PRP preparation.
Platelet aggregation was monitored using a Dual-channel Lumi-aggregometer (Model 400 Chronolog Corporation, Chicago, USA) using 0.45 ml aliquots of PRP. The final volume was made up to 0.5 ml with the test compound dissolved either in normal saline or an appropriate solvent known to be devoid of any effect on aggregation. Aggregation was induced by arachidonic acid (AA), platelet activating factor (PAF) or collagen.
Anti-platelet aggregation effects were studied by pretreatment of PRP with 2-hydroxyacetanilide or paracetamol for 1 minute followed by the addition of the maximum dose of agonist (i.e. AA, PAF or collagen). The resulting aggregation was monitored for 5 minutes following agonist addition by the change in light transmission as a function of time.
The results were expressed as percentage inhibition after the addition of aggregation agents compared with controls. Once the anti-platelet aggregation activity of the inhibitors against these agonists was established, dose-response curves were constructed to calculate the IC50 values of the inhibitors.

**Q.** Which “in vitro inhibition of platelet aggregation” value [1] does the source give for CC(=O)Nc1cccc(O)c1 [3-hydroxyacetanilide] here?
**A.** comparable in vitro inhibition

**Q.** For CC(=O)Oc1ccccc1C(=O)O [Aspirin], which “Mean paw volume ± SEM after 5 hr” value ([2]; dose 150 mg/kg) is on record?
**A.** 0.58 ± 0.08 mL

**Q.** What about the “Anti-inflammatory Activity Mean ± SEM” value ([2]; dose 150 mg/kg) of the same compound?
**A.** 28 ± 9

**Q.** What about the “Mean paw volume ± SEM after 5 hr” value ([2]; dose 500 mg/kg) of the same compound?
**A.** 0.23 ± 0.03 mL

**Q.** And the “Anti-inflammatory Activity Mean ± SEM” value ([2]; dose 500 mg/kg)?
**A.** 71 ± 3

**Q.** And the Survival ([3]; 50 mg/kg IP 2 hours before PAF 11 μg/kg IV)?
**A.** 7/10*

**Q.** For CC(=O)Nc1ccc(O)cc1 [Paracetamol, 4-hydroxyacetanilide], which “dose that may cause hepatocellular necrosis” value [4] is on record?
**A.** ≥ 10 g

**Q.** And the No. of writhings ([5]; 300 mg/kg oral)?
**A.** 20

**Q.** And the No. of writhings ([5]; 500 mg/kg oral)?
**A.** 3.2

**Q.** And the inhibition at 300 mg/kg ([5]; Mus musculus, 300 mg/kg oral)?
**A.** 33%

**Q.** And the inhibition at 500 mg/kg ([5]; Mus musculus, 500 mg/kg oral)?
**A.** 89%

**Q.** And the “Mean paw volume ± SEM after 5 hr” value ([2]; dose 300 mg/kg)?
**A.** 0.75 ± 0.06 mL

**Q.** What about the “Anti-inflammatory Activity Mean ± SEM” value ([2]; dose 300 mg/kg) of the same compound?
**A.** 6 ± 2

**Q.** And the “Mean paw volume ± SEM after 5 hr” value ([2]; dose 500 mg/kg)?
**A.** 0.72 ± 0.07 mL

**Q.** And the “Anti-inflammatory Activity Mean ± SEM” value ([2]; dose 500 mg/kg)?
**A.** 10 ± 3

**Q.** And the inhibition at 500 mg/kg ([6]; AA 1.7 mM, read-out: % inhibition of in vivo platelet aggregation induced by AA)?
**A.** 5 ± 3%

**Q.** What about the inhibition at 500 mg/kg ([6]; PAF 0.8 μM, read-out: % inhibition of in vivo platelet aggregation induced by PAF) of the same compound?
**A.** 8 ± 2%

**Q.** And the IC50 ([7]; aggregation agent AA, read-out: IC50 ± SEM, platelet aggregation induced by AA)?
**A.** 136 ± 1 µM

**Q.** And the IC50 ([7]; aggregation agent PAF, read-out: IC50 ± SEM, platelet aggregation induced by PAF)?
**A.** 167 ± 8 µM

**Q.** And the IC50 ([7]; aggregation agent collagen, read-out: IC50 ± SEM, platelet aggregation induced by Collagen)?
**A.** 263 ± 1 µM

**Q.** What about the Survival ([3]; 300 mg/kg IP 2 hours before PAF 11 μg/kg IV) of the same compound?
**A.** 0/10

**Q.** And the Survival ([3]; 500 mg/kg IP 2 hours before PAF 11 μg/kg IV)?
**A.** 2/10
